Data on four molecules can be found in patent publication US20260176320A1, “MODULATORS OF G-PROTEIN COUPLED RECEPTORS” (priority 2018, published 2026).

Each structure is given as a SMILES string. pEC50: −log10 of the molar value. Like-named read-outs stand apart in the source and are kept apart here.

In assay [1] the target is T1, GIP-R (Homo sapiens, UniProt P48546).
T1 sequence (P48546 22-466): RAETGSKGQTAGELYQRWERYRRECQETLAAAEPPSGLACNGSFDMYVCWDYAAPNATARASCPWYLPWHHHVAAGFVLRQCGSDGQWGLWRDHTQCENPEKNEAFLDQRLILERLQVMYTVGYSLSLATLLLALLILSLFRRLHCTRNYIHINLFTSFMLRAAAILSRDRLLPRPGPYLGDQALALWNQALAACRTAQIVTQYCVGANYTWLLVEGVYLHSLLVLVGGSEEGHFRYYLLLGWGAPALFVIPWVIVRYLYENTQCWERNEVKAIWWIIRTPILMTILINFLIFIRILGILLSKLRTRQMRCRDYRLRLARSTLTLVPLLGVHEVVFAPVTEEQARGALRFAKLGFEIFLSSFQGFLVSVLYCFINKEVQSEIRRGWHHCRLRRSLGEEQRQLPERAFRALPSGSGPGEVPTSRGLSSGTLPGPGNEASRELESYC
The assay is described as follows: HitHunter cAMP assay (GIP-R). The assay is classed as cell-based. The following applies: cAMP; for Emax: read-out: (Emax) GIP-R. A digest of the protocol: (§1)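 Suspension cells expressing each receptor (10,000 per well) in HBSS with 10 mM HEPES, 625 μM IBMX and 0.2% BSA were treated with a 22-point 2-fold agonist series in duplicate for 30 minutes at room temperature. cAMP was detected by antibody immunocompetition with luminescence read after overnight incubation.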
In general terms: cAMP levels reflect the balance of adenylyl cyclase and phosphodiesterase activity.

Assay [2] concerns mice. The assay is described as follows: Glucose tolerance test (GTT). The following applies: 24 h GTT, s.c., dose range 2-5 nmol/kg, percent of vehicle. It counts as in vivo, mouse. The method, then: Freestyle Lite glucometer and strips; compounds to be tested; sterilized glucose solution 200 mg/ml.
Compounds were diluted in PBS from the 1 mM DMSO stocks right before injection. Body weight and baseline blood glucose level for each mouse were measured. Tails were snipped using sterile scissors; blood from tails was used to measure glucose. For 0.25 h GTT, mice were fasted for 5-6 h and injected with compound subcutaneously 15 mins before glucose injection. For 4 h GTT, mice were fasted O/N for 16 h and injected with compound subcutaneously 4 h before glucose injection. For 16 h GTT, mice were injected with compound subcutaneously 16 h before glucose injection; food was removed at the same time. For 24 h GTT, mice were injected with compound subcutaneously 24 h before glucose injection; food was removed 5-6 h before glucose injection. 20% glucose in water was prepared; the solution was sterilized by 0.2 μm-filtration. An intraperitoneal injection of glucose (2 g/kg) was given to the mouse. Continued to take blood samples from the tail. Blood glucose was measured at 10, 20, 30, 40, 60, 90, and 120 minutes after glucose injection. Between each of these time points, the mouse was returned to its cage and monitored (at least 6 replicate mice were used for each time-point). The average glucose measurements were plotted as a function of time and the area under the curve (AUC) was determined.

Assay [3] has as its target T2, GLP-1R (Homo sapiens, UniProt P43220). The assay is described as follows: PathHunter β-arrestin assay. It counts as cell-based. The method, boiled down:
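Cells seeded overnight, then medium replaced with medium containing 0.2% BSA; agonists added as 22-point 2-fold DMSO dilution series in duplicate and incubated 90 min at 37 °C, 5% CO2. After addition of detection solution, plates sat 3 h at room temperature in the dark; luminescence read.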

In assay [4] the target is T2, GLP-1R. The assay is described as follows: HitHunter cAMP assay (GLP-1R). The assay is classed as cell-based. The note with it: cAMP; for Emax: read-out: (Emax) GLP-1R. The method, boiled down: as §1
[5] abbreviates: Table 3, read-out: EC50 GIP-R/nM.
Where [6] appears, read: Table 3A, read-out: EC50 GIP-R/nM.
[7] abbreviates: PathHunter β-arrestin assay, read-out: β-arrestin activity EC50.
Setting [8] is: Table 3, read-out: EC50 GLP-1R/nM.
The mark [9] stands for this setting: Table 3A, read-out: EC50 GLP-1R/nM.

T2 sequence (P43220 24-463): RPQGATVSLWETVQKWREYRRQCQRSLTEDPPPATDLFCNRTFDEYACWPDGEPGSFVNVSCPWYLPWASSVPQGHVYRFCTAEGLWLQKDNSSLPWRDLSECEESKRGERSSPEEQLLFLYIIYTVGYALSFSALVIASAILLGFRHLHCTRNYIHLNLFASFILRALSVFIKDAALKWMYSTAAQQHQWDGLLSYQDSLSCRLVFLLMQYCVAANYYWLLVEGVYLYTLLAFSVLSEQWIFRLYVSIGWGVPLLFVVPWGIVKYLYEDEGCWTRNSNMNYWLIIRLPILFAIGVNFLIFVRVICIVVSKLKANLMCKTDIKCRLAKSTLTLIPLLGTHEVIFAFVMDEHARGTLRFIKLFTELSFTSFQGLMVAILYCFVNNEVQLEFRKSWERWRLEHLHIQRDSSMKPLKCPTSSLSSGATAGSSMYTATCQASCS

A word on the Emax: it is the greatest response seen or fitted, relative to the assay's reference. The pEC50 is the negative decadic logarithm of the EC50, by convention in mol/L. Regarding `CCCCCCCCCCCCCCCC(=O)N[C@@H](CCC(=O)NCCCC[C@H](NC(=O)[C@H](CO)NC(=O)[C@@H]1CCCN1C(=O)[C@@H]1CCCN1C(=O)[C@@H]1CCCN1C(=O)[C@H](C)NC(=O)CNC(=O)[C@H](CO)NC(=O)[C@H](CO)NC(=O)[C@@H]1CCCN1C(=O)CNC(=O)CNC(=O)[C@H](C)NC(=O)[C@H](CC(C)C)NC(=O)[C@H](CC(C)C)NC(=O)[C@H](Cc1c[nH]c2ccccc12)NC(=O)[C@H](CC(N)=O)NC(=O)[C@@H](NC(=O)[C@H](Cc1ccccc1)NC(=O)[C@H](CCC(=O)O)NC(=O)C(C)(C)NC(=O)[C@H](C)NC(=O)[C@H](C)NC(=O)[C@H](CCC(N)=O)NC(=O)[C@H](CCCCN)NC(=O)[C@H](CC(=O)O)NC(=O)[C@H](CC(C)C)NC(=O)[C@H](Cc1ccc(O)cc1)NC(=O)[C@@H](NC(=O)[C@H](CO)NC(=O)[C@H](Cc1ccc(O)cc1)NC(=O)[C@H](CC(=O)O)NC(=O)[C@H](CO)NC(=O)[C@@H](NC(=O)[C@H](Cc1ccccc1)NC(=O)[C@@H](NC(=O)CNC(=O)[C@H](CCC(=O)O)NC(=O)C(C)(C)CC(=O)NCCN1CCCCC1=O)[C@@H](C)O)[C@@H](C)O)[C@@H](C)CC)C(C)C)C(N)=O)C(=O)O` [Compound 18], the Emax was 80% in assay [1] (Table 3), 80% in assay [1] (Table 3A), 101% in assay [4] (Table 3) and 101% in assay [4] (Table 3A). Besides, the EC50 in assay [1] (setting [5]) is 0.1 to 1 nM; in assay [1] (setting [6]), 0.1 to 1 nM; in assay [4] (setting [8]), below 0.1 nM; in assay [4] (setting [9]), below 0.1 nM. Besides, the AUC score in assay [2] was 2 (AUC score 2 = 26-50%). Moreover, in assay [3] (setting [7]), the pEC50 is above 8.00.

Turning to `CCCCCCCCCCCCCCCC(=O)N[C@@H](CCC(=O)NCCCC[C@H](NC(=O)[C@H](CO)NC(=O)[C@@H]1CCCN1C(=O)[C@@H]1CCCN1C(=O)[C@@H]1CCCN1C(=O)[C@H](C)NC(=O)CNC(=O)[C@H](CO)NC(=O)[C@H](CO)NC(=O)[C@@H]1CCCN1C(=O)CNC(=O)CNC(=O)[C@H](C)NC(=O)[C@H](CC(C)C)NC(=O)[C@H](CC(C)C)NC(=O)[C@H](Cc1c[nH]c2ccccc12)NC(=O)[C@H](CC(N)=O)NC(=O)[C@@H](NC(=O)[C@H](Cc1ccccc1)NC(=O)[C@H](CCC(=O)O)NC(=O)C(C)(C)NC(=O)[C@H](C)NC(=O)[C@H](C)NC(=O)[C@H](CCC(N)=O)NC(=O)[C@H](CCCCN)NC(=O)[C@H](CC(=O)O)NC(=O)[C@H](CC(C)C)NC(=O)[C@H](Cc1ccc(O)cc1)NC(=O)[C@@H](NC(=O)[C@H](CO)NC(=O)[C@H](Cc1ccc(O)cc1)NC(=O)[C@H](CC(=O)O)NC(=O)[C@H](CO)NC(=O)[C@@H](NC(=O)[C@H](Cc1ccccc1)NC(=O)[C@@H](NC(=O)CNC(=O)[C@H](CCC(=O)O)NC(=O)CSCC(=O)NCCN1CCOCC1=O)[C@@H](C)O)[C@@H](C)O)[C@@H](C)CC)C(C)C)C(N)=O)C(=O)O` [Compound 32], the Emax was determined as 65% in assay [1] (Table 3), 65% in assay [1] (Table 3A), 103% in assay [4] (Table 3) and 103% in assay [4] (Table 3A). Further, the EC50 is 1 to 10 nM in assay [1] (setting [5]), 1 to 10 nM in assay [1] (setting [6]), below 0.1 nM in assay [4] (setting [8]) and below 0.1 nM in assay [4] (setting [9]). Besides, in assay [2], the AUC score is 2 (AUC score 2 = 26-50%). Also, in assay [3] (setting [7]), the pEC50 was below 6.00.

With `CCCCCCCCCCCCCCCC(=O)N[C@@H](CCC(=O)NCCCC[C@H](NC(=O)[C@H](CO)NC(=O)[C@@H]1CCCN1C(=O)[C@@H]1CCCN1C(=O)[C@@H]1CCCN1C(=O)[C@H](C)NC(=O)CNC(=O)[C@H](CO)NC(=O)[C@H](CO)NC(=O)[C@@H]1CCCN1C(=O)CNC(=O)CNC(=O)[C@H](C)NC(=O)[C@H](CC(C)C)NC(=O)[C@H](CC(C)C)NC(=O)[C@H](Cc1c[nH]c2ccccc12)NC(=O)[C@H](CC(N)=O)NC(=O)[C@@H](NC(=O)[C@H](Cc1ccccc1)NC(=O)[C@H](CCC(=O)O)NC(=O)C(C)(C)NC(=O)[C@H](C)NC(=O)[C@H](C)NC(=O)[C@H](CCC(N)=O)NC(=O)[C@H](CCCCN)NC(=O)[C@H](CC(=O)O)NC(=O)[C@H](CC(C)C)NC(=O)[C@H](Cc1ccc(O)cc1)NC(=O)[C@@H](NC(=O)[C@H](CO)NC(=O)[C@H](Cc1ccc(O)cc1)NC(=O)[C@H](CC(=O)O)NC(=O)[C@H](CO)NC(=O)[C@@H](NC(=O)[C@H](Cc1ccccc1)NC(=O)[C@@H](NC(=O)CNC(=O)[C@H](CCC(=O)O)NC(=O)CSCC(=O)NCCN1CCCCCC1=O)[C@@H](C)O)[C@@H](C)O)[C@@H](C)CC)C(C)C)C(N)=O)C(=O)O` [Compound 41], the EC50 was 1 to 10 nM in assay [1] (EC50 GIP-R/nM, Table 3); 1 to 10 nM in assay [1] (EC50 GIP-R/nM, Table 3A); 0.1 to 1 nM in assay [4] (EC50 GLP-1R/nM, Table 3); 0.1 to 1 nM in assay [4] (EC50 GLP-1R/nM, Table 3A). In addition, the Emax in assay [1] (Table 3) was 75%; in assay [1] (Table 3A) it was 75%; in assay [4] (Table 3), 100 to 104%; in assay [4] (Table 3A) it was 100 to 104%. In assay [2], the AUC score is reported as 4 (AUC score 4 = 76-100%). In assay [3], this molecule had a pEC50 below 6.00.

Regarding `CCCCCCCCCCCCCCCC(=O)N[C@@H](CCC(=O)NCCCC[C@H](NC(=O)[C@H](CO)NC(=O)[C@@H]1CCCN1C(=O)[C@@H]1CCCN1C(=O)[C@@H]1CCCN1C(=O)[C@H](C)NC(=O)CNC(=O)[C@H](CO)NC(=O)[C@H](CO)NC(=O)[C@@H]1CCCN1C(=O)CNC(=O)CNC(=O)[C@H](C)NC(=O)[C@H](CC(C)C)NC(=O)[C@H](CC(C)C)NC(=O)[C@H](Cc1c[nH]c2ccccc12)NC(=O)[C@H](CC(N)=O)NC(=O)[C@@H](NC(=O)[C@H](Cc1ccccc1)NC(=O)[C@H](CCC(=O)O)NC(=O)C(C)(C)NC(=O)[C@H](C)NC(=O)[C@H](C)NC(=O)[C@H](CCC(N)=O)NC(=O)[C@H](CCCCN)NC(=O)[C@H](CC(=O)O)NC(=O)[C@H](CC(C)C)NC(=O)[C@H](Cc1ccc(O)cc1)NC(=O)[C@@H](NC(=O)[C@H](CO)NC(=O)[C@H](Cc1ccc(O)cc1)NC(=O)[C@H](CC(=O)O)NC(=O)[C@H](CO)NC(=O)[C@@H](NC(=O)[C@H](Cc1ccccc1)NC(=O)[C@@H](NC(=O)CNC(=O)[C@H](CCC(=O)O)NC(=O)CSCC(=O)NCCN1CCCCC1=O)[C@@H](C)O)[C@@H](C)O)[C@@H](C)CC)C(C)C)C(N)=O)C(=O)O` [Compound 65], the Emax in assay [1] (Table 3) was 42%; in assay [1] (Table 3A), 42%; in assay [4] (Table 3), 96%; in assay [4] (Table 3A), 96%. The EC50 fell in the range of 1 to 10 nM in assay [1] (setting [5]), 1 to 10 nM in assay [1] (setting [6]), 0.1 to 1 nM in assay [4] (setting [8]) and 0.1 to 1 nM in assay [4] (setting [9]). In assay [2], the AUC score is 2 (AUC score 2 = 26-50%). Also, in assay [3] (setting [7]), the pEC50 is below 6.00.
